From patent US12123010B2, “Plants having increased tolerance to herbicides” (BASF SE, priority 2017, dated 2024)
Values joined by “and” are separate entries in the source; they are usually repeats but may differ in a detail not shown here. Equal values may be shown once. Read-outs that look alike come from different tables or passages of the source.

How the values were obtained:
[1] = target: Variant PPO Enzyme R128A, F420M (Amaranthus PPO2) (Amaranthus tuberculatus, UniProt Q0NZW9, F420M/R128A); type: biochemical
[2] = target: Variant PPO Enzyme R128A, F420V (Amaranthus PPO2) (Amaranthus tuberculatus, UniProt Q0NZW9, F420V/R128A); assay: biochemical; type: biochemical
[3] = target: Variant PPO Enzyme F420M (Amaranthus PPO2) (Amaranthus tuberculatus, UniProt Q0NZW9, F420M); assay: biochemical; type: biochemical
[4] = target: Variant PPO Enzyme F420V (Amaranthus PPO2) (Amaranthus tuberculatus, UniProt Q0NZW9, F420V); type: biochemical
[5] = target: Variant PPO Enzyme L397Q, F420M (Amaranthus PPO2) (Amaranthus tuberculatus, UniProt Q0NZW9, F420M/L397Q); type: biochemical
[6] = tested on: Transgenic T2 Arabidopsis plants harboring PPO inhibitor tolerance trait; assay: Lab based germination assay in 48-well plates (Table i); type: in vivo, Arabidopsis thaliana
[7] = target: Variant PPO Enzyme L397Q (Amaranthus PPO2) (Amaranthus tuberculatus, UniProt Q0NZW9, L397Q); type: biochemical
[8] = target: Variant PPO Enzyme L397Q, F420V (Amaranthus PPO2) (Amaranthus tuberculatus, UniProt Q0NZW9, F420V/L397Q); type: biochemical
[9] = target: Variant PPO Enzyme L397E, F420M (Amaranthus PPO2) (Amaranthus tuberculatus, UniProt Q0NZW9, F420M/L397E); type: biochemical
[10] = read-out: Variant PPO Enzyme IC50

Variant PPO Enzyme R128A, F420V (Amaranthus PPO2), sequence (Q0NZW9 1-534 F420V/R128A): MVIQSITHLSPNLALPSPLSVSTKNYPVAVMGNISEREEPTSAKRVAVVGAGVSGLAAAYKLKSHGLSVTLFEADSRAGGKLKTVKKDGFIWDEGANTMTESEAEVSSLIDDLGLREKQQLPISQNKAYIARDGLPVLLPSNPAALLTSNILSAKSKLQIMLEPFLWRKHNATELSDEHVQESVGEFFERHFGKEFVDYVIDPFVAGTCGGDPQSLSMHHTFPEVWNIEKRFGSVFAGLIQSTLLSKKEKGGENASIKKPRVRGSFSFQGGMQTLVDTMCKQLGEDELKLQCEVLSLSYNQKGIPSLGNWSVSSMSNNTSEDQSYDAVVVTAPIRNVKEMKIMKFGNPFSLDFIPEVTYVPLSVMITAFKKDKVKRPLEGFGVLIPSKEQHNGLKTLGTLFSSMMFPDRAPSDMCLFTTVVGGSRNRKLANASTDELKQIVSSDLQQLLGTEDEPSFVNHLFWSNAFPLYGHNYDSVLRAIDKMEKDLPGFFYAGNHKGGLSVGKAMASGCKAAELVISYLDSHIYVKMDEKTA
Variant PPO Enzyme R128A, F420M (Amaranthus PPO2), sequence (Q0NZW9 1-534 F420M/R128A): as the sequence (Q0NZW9 1-534 F420V/R128A) above, with V420M counted along it
Variant PPO Enzyme F420M (Amaranthus PPO2), sequence (Q0NZW9 1-534 F420M): as the sequence (Q0NZW9 1-534 F420V/R128A) above, with A128R, V420M counted along it
Variant PPO Enzyme F420V (Amaranthus PPO2), sequence (Q0NZW9 1-534 F420V): as the sequence (Q0NZW9 1-534 F420V/R128A) above, with A128R counted along it
Variant PPO Enzyme L397E, F420M (Amaranthus PPO2), sequence (Q0NZW9 1-534 F420M/L397E): as the sequence (Q0NZW9 1-534 F420V/R128A) above, with A128R, L397E, V420M counted along it
Variant PPO Enzyme L397Q, F420V (Amaranthus PPO2), sequence (Q0NZW9 1-534 F420V/L397Q): as the sequence (Q0NZW9 1-534 F420V/R128A) above, with A128R, L397Q counted along it
Variant PPO Enzyme L397Q, F420M (Amaranthus PPO2), sequence (Q0NZW9 1-534 F420M/L397Q): as the sequence (Q0NZW9 1-534 F420V/R128A) above, with A128R, L397Q, V420M counted along it
Variant PPO Enzyme L397Q (Amaranthus PPO2), sequence (Q0NZW9 1-534 L397Q): as the sequence (Q0NZW9 1-534 F420V/R128A) above, with A128R, L397Q, V420F counted along it

## CCOC(=O)COc1ccccc1Oc1nc(-n2c(=O)cc(C(F)(F)F)n(C)c2=O)c(F)cc1Cl [Uracilpyridine 4, ethyl 2-[2-[[3-chloro-5-fluoro-6-[3-methyl-2,6-dioxo-4-(trifluoromethyl)pyrimidin-1-yl]-2-pyridyl]oxy]phenoxy]acetate]
[1]
  IC50: 69.4 nM

## COCCOC(=O)COc1ncccc1Oc1nc(-n2c(=O)cc(C(F)(F)F)n(C)c2=O)c(F)cc1Cl [Uracilpyridine 19, 2-methoxyethyl 2-[[3-[[3-chloro-5-fluoro-6-[3-methyl-2,6-dioxo-4-(trifluoromethyl)pyrimidin-1-yl]-2-pyridyl]oxy]-2-pyridyl]oxy]acetate]
[1]
  IC50: 125 nM

## C#CCOC(=O)COc1ncccc1Oc1nc(-n2c(=O)cc(C(F)(F)F)n(C)c2=O)c(F)cc1Cl [Uracilpyridine 14, prop-2-ynyl 2-[[3-[[3-chloro-5-fluoro-6-[3-methyl-2,6-dioxo-4-(trifluoromethyl)pyrimidin-1-yl]-2-pyridyl]oxy]-2-pyridyl]oxy]acetate]
[1]
  IC50: 158 nM

## CCOC(=O)COc1ccccc1Oc1nc(-n2c(=O)c(C)c(C(F)(F)F)n(C)c2=O)c(F)cc1Cl [Uracilpyridine 12, ethyl 2-[2-[[3-chloro-6-[3,5-dimethyl-2,6-dioxo-4-(trifluoromethyl)pyrimidin-1-yl]-5-fluoro-2-pyridyl]oxy]phenoxy]acetate]
[1]
  IC50: 114 nM

## CCOC(=O)COC(=O)COc1ncccc1Oc1nc(-n2c(=O)cc(C(F)(F)F)n(C)c2=O)c(F)cc1Cl [Uracilpyridine 18, (2-ethoxy-2-oxo-ethyl) 2-[[3-[[3-chloro-5-fluoro-6-[3-methyl-2,6-dioxo-4-(trifluoromethyl)pyrimidin-1-yl]-2-pyridyl]oxy]-2-pyridyl]oxy]acetate]
[1]
  IC50: 116 nM

## C=CCOC(=O)COc1ncccc1Oc1nc(-n2c(=O)cc(C(F)(F)F)n(C)c2=O)c(F)cc1Cl [Uracilpyridine 13, allyl 2-[[3-[[3-chloro-5-fluoro-6-[3-methyl-2,6-dioxo-4-(trifluoromethyl)pyrimidin-1-yl]-2-pyridyl]oxy]-2-pyridyl]oxy]acetate]
[1]
  IC50: 91.8 nM

## Cn1c(C(F)(F)F)cc(=O)n(-c2nc(Oc3cccnc3OCC(=O)OCC(F)F)c(Cl)cc2F)c1=O [Uracilpyridine 16, 2,2-difluoroethyl 2-[[3-[[3-chloro-5-fluoro-6-[3-methyl-2,6-dioxo-4-(trifluoromethyl)pyrimidin-1-yl]-2-pyridyl]oxy]-2-pyridyl]oxy]acetate]
[1]
  IC50: 89 nM

## CCOC(=O)COc1ncccc1Oc1nc(-n2c(=O)cc(C(F)(F)F)n(C)c2=O)c(F)cc1Cl [Uracilpyridine 2, ethyl 2-[[3-[[3-chloro-5-fluoro-6-[3-methyl-2,6-dioxo-4-(trifluoromethyl)pyrimidin-1-yl]-2-pyridyl]oxy]-2-pyridyl]oxy]acetate]
[2]
  IC50: 149 nM
[1]
  IC50: 97.4 nM
[3]
  IC50: 45.7 nM

## CCOC(=O)COc1ncccc1Oc1cc(-n2c(=O)cc(C(F)(F)F)n(C)c2=O)c(F)cc1Cl [Uracilpyridine 1, ethyl 2-[[3-[2-chloro-4-fluoro-5-[3-methyl-2,6-dioxo-4-(trifluoromethyl)pyrimiclin-1-yl]phenoxy]-2-pyridyl]oxy]acetate]
[4]
  IC50: 66.4 nM
[5]
  IC50: 429 nM
[6]; construct AMATU_PPO2_F420M (Amaranthus tuberculatus), in comparison to wild type plants
  Tolerance Factor: 110
[6]; construct AMATU_PPO2_L397D (Amaranthus tuberculatus), in comparison to wild type plants
  Tolerance Factor: 50
[6]; construct AMATU_PPO2_L397D_F420V (Amaranthus tuberculatus), in comparison to wild type plants
  Tolerance Factor: 41
[6]; construct AMATU_PPO2_R128A_F420M (Amaranthus tuberculatus), in comparison to wild type plants
  Tolerance Factor: 50
[6]; construct AMATU_PPO2_R128A_F420V (Amaranthus tuberculatus), in comparison to wild type plants
  Tolerance Factor: 75
[6]; construct AMATU_PPO2_WT (Amaranthus tuberculatus), growth inhibition in comparison to wild type plants
  Tolerance Factor: 6
[7]
  IC50: 2.38 nM
[8]
  IC50: 2260 nM
[2]; [10]
  IC50: 162 nM and 280 nM
[1]
  IC50: 61.6 nM
[3]; [10]
  IC50: 38.1 nM and 46.9 nM

## CC(C)COC(=O)COc1ncccc1Oc1nc(-n2c(=O)cc(C(F)(F)F)n(C)c2=O)c(F)cc1Cl [Uracilpyridine 17, isobutyl 2-[[3-[[3-chloro-5-fluoro-6-[3-methyl-2,6-dioxo-4-(trifluoromethyl)pyrimidin-1-yl]-2-pyridyl]oxy]-2-pyridyl]oxy]acetate]
[1]
  IC50: 46.1 nM

## Cn1c(C(F)(F)F)cc(=O)n(-c2nc(Oc3ccccc3OCC(=O)NS(C)(=O)=O)c(Cl)cc2F)c1=O [Uracilpyridine 10, 2-[2-[[3-chloro-5-fluoro-6-[3-methyl-2,6-dioxo-4-(trifluoromethyl)pyrimidin-1-yl]-2-pyridyl]oxy]phenoxy]-N-methylsulfonyl-acetamide]
[9]
  IC50: 6.51 µM
[1]
  IC50: 1670 nM

## Cn1c(C(F)(F)F)cc(=O)n(-c2nc(Oc3cccnc3OCC(=O)OCC3CC3)c(Cl)cc2F)c1=O [Uracilpyridine 15, cyclopropylmethyl 2-[[3-[[3-chloro-5-fluoro-6-[3-methyl-2,6-dioxo-4-(trifluoromethyl)pyrimidin-1-yl]-2-pyridyl]oxy]-2-pyridyl]oxy]acetate]
[1]
  IC50: 42.9 nM
